Data taken from ChEMBL document CHEMBL3734672, “Synthesis, cyclooxygenase inhibition, anti-inflammatory evaluation and ulcerogenic liability of novel triarylpyrazoline derivatives as selective COX-2 inhibitors” (Bioorg Med Chem Lett, 2015).

What was measured:
[1] = tested on: Rattus norvegicus; test: Antiinflammatory activity in rat assessed as inhibition of carrageenan-induced paw edema at 50 mg/kg, po measured after 3hrs post carrageenan challenge; format: functional
[2] = biological target: T1, Prostaglandin G/H synthase 1 (Ovis aries, UniProt P05979); test: Inhibition of ovine COX-1 preincubated for 2 mins prior to arachidonic acid addition by enzyme immuno assay
T1 sequence (P05979 whole entry): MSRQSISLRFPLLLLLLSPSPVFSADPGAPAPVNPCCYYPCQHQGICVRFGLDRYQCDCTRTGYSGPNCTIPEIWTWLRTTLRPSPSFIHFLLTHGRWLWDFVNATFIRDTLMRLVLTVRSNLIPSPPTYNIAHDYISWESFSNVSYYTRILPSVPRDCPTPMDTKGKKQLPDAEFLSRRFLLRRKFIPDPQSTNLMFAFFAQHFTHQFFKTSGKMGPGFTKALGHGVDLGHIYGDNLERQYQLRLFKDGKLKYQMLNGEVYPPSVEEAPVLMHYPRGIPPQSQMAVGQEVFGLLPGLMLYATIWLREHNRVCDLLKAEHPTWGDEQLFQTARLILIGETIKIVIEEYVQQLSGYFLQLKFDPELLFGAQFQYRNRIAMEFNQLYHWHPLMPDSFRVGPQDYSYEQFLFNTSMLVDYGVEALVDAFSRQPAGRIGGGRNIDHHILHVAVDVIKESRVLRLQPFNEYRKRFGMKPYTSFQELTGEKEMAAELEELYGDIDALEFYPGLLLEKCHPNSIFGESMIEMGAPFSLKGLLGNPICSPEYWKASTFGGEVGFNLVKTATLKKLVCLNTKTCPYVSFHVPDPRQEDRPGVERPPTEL

[3] = Selectivity index, ratio of IC50 for ovine COX-1 to IC50 for human recombinant COX-2
[4] = biological target: T2, Prostaglandin G/H synthase 2 (Homo sapiens, UniProt P35354); test: Inhibition of human recombinant COX-2 preincubated for 2 mins prior to arachidonic acid addition by enzyme immuno assay
T2 sequence (P35354 whole entry): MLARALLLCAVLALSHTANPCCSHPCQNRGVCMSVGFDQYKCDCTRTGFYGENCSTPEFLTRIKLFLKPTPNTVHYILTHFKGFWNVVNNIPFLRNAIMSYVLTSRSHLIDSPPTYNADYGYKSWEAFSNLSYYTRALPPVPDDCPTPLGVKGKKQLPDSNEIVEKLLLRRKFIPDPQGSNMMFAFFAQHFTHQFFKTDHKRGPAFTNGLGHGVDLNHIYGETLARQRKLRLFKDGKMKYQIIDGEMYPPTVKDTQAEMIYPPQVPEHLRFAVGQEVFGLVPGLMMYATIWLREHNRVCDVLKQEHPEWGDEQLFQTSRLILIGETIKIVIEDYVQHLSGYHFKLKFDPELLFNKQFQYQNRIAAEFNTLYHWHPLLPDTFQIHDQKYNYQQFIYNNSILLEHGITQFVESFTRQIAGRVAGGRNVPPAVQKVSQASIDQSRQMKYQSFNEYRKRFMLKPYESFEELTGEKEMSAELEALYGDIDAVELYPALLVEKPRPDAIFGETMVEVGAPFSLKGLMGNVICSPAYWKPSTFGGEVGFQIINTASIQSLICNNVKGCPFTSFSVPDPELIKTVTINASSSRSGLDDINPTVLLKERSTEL

[5] = tested on: Rattus norvegicus; test: Gastrointestinal toxicity in rat assessed as ulcer incidence at 100 mg/kg; format: organism-based; conditions: in vivo
[6] = tested on: Rattus norvegicus; test: Ulcerogenic activity in rat assessed as ulcer index at 100 mg/kg; format: toxicity, organism-based; conditions: in vivo

Compound | IC50 [2] [µM] | Ratio IC50 [3] | IC50 [4] [µM] | inhibition in vivo at 50 mg/kg [1] [%] | Activity [5] [%] | UI [6]
CS(=O)(=O)c1ccc(C2=NN(c3ccc(C(=O)O)cc3)C(c3ccc(F)cc3)C2)cc1 (stereo not given) | 9.7 | 3.42 | 2.84 | 42.3 | – | –
CS(=O)(=O)c1ccc(C2=NN(c3ccc(S(N)(=O)=O)cc3)C(c3ccc(F)cc3)C2)cc1 (stereo not given) | 9.7 | 2.91 | 3.41 | 65.7 | 6 | 7.7
Cc1ccc(-c2cc(C(F)(F)F)nn2-c2ccc(S(N)(=O)=O)cc2)cc1 [CELECOXIB] | – | – | – | 65.3 | 4.2 | 4.85
COc1cccc(C2CC(c3ccc(S(C)(=O)=O)cc3)=NN2c2ccc(C(=O)O)cc2)c1 (stereo not given) | 10.1 | 2.21 | 4.71 | 31.3 | – | –
COc1ccc2c(c1)c(CC(=O)O)c(C)n2C(=O)c1ccc(Cl)cc1 [INDOMETHACIN] | – | – | – | – | 8.3 | 12.3
COc1cc(C2CC(c3ccc(S(C)(=O)=O)cc3)=NN2c2ccc(S(N)(=O)=O)cc2)cc(OC)c1OC (stereo not given) | 12.3 | 2.63 | 4.67 | 73.7 | 5 | 5.92
COc1cc(C2CC(c3ccc(S(C)(=O)=O)cc3)=NN2c2ccc(C(=O)O)cc2)cc(OC)c1OC (stereo not given) | 13.4 | 2.51 | 5.94 | 66.2 | 5.5 | 6.85
COc1ccc(C2CC(c3ccc(S(C)(=O)=O)cc3)=NN2c2ccc(C(=O)O)cc2)cc1OC (stereo not given) | 9.7 | 2.61 | 3.74 | 6.11 | – | –
CS(=O)(=O)c1ccc(C2=NN(c3ccc(C(=O)O)cc3)C(c3ccc(Cl)cc3)C2)cc1 (stereo not given) | 11.4 | 2.91 | 3.98 | 50.4 | – | –

Continued, in another order:

IC50 [2] [µM] | Ratio IC50 [3] | IC50 [4] [µM] | Compound | inhibition in vivo at 50 mg/kg [1] [%] | Activity [5] [%] | UI [6]
4.9 | 5 | 0.98 | CS(=O)(=O)c1ccc(C2=NN(c3ccc(C(=O)O)cc3)C(c3ccccc3)C2)cc1 (stereo not given) | 56.4 | – | –
4.7 | 4.11 | 1.16 | CS(=O)(=O)c1ccc(C2=NN(c3ccc(C(=O)O)cc3)C(c3cccs3)C2)cc1 (stereo not given) | 35.6 | – | –
6.4 | 3.71 | 1.75 | CS(=O)(=O)c1ccc(C2=NN(c3ccc(S(N)(=O)=O)cc3)C(c3cccs3)C2)cc1 (stereo not given) | 36.4 | – | –
5.4 | 3.33 | 1.62 | CS(=O)(=O)c1ccc(C2=NN(c3ccc(S(N)(=O)=O)cc3)C(c3ccccc3)C2)cc1 (stereo not given) | 54.3 | – | –
6.5 | 3.1 | 2.11 | COc1ccc(C2CC(c3ccc(S(C)(=O)=O)cc3)=NN2c2ccc(S(N)(=O)=O)cc2)cc1 (stereo not given) | 42.4 | – | –
6.6 | 3.11 | 2.17 | COc1ccc(C2CC(c3ccc(S(C)(=O)=O)cc3)=NN2c2ccc(C(=O)O)cc2)cc1 (stereo not given) | 55.4 | – | –
7.1 | 4.11 | 1.76 | COc1cccc(C2CC(c3ccc(S(C)(=O)=O)cc3)=NN2c2ccc(S(N)(=O)=O)cc2)c1 (stereo not given) | 38.3 | – | –
8.3 | 3.11 | 2.67 | CS(=O)(=O)c1ccc(C2=NN(c3ccc(S(N)(=O)=O)cc3)C(c3ccc(Cl)cc3)C2)cc1 (stereo not given) | 42.4 | – | –
8.7 | 4.41 | 1.98 | COc1ccc(C2CC(c3ccc(S(C)(=O)=O)cc3)=NN2c2ccc(S(N)(=O)=O)cc2)cc1OC (stereo not given) | 45.5 | – | –
